Assay results published in patent US9034943B2, “Salts of dehydroacetic acid as a pyrithione stabilizer in plastics” (LONZA LTD, priority 2009, dated 2015).
Read-outs that look alike come from different tables or passages of the source.

Columns and labels:
[1] = Method: (§1) Zinc dehydroacetate and zinc pyrithione were mixed with filled and clear commercial flexible polyvinyl chloride (PVC) compounds. The mixtures were extruded using an intermeshing modular co-rotating twin screw extruder to form flexible PVC compounds. […] Following extrusion, the flexible PVC compounds were cooled. Once cooling was complete, the flexible PVC compounds were pressed at 185° C. to form plastic sheets.
as §1, with “Zinc” for “Zinc dehydroacetate and zinc”, “pyrithione was” for “pyrithione were”
The weathering tester was set to a cycle of eight hours of ultraviolet A light (long wave) exposure and a four hour water condensation cycle in accordance with ASTM […]. After 1,000 hours of exposure, the plastic sheets were examined for color development.

[2] = tested on: Aspergillus niger ATCC 9642; Aureobasidium pullulans ATCC 15233; Chaetomium globosum ATCC 6205; Penicillium funiculosum ATCC 11797; Trichoderma virens ATCC …; assay: Fungal resistance test, ASTM G21, on mineral salts agar; set-up: Zone of Inhibition: key to the marks not given beside the values; conditions: PVC samples inoculated with mixed fungi, 28° C., 4 weeks

For zinc pyrithione, the “Color Rating of Clear FPVC” value ([1]; clear flexible PVC sheet, 0 hours QUV exposure) was 0, the “Color Rating of Clear FPVC” value ([1]; clear flexible PVC sheet, 1,000 hours QUV exposure (8 h UVA / 4 h condensation cycle)) was 3 and the “Color Rating of Filled FPVC” value ([1]; filled flexible PVC sheet, 0 hours QUV exposure) was 0. For the same substance, the “Color Rating of Filled FPVC” value ([1]; filled flexible PVC sheet, 1,000 hours QUV exposure (8 h UVA / 4 h condensation cycle)) was 4, the “Fungal Growth Reading” value [2] was 0 and the “Zone of Inhibition” value [2] was “++”.
